Measurements taken from patent US11512049B2, “Pleuromutilin 2-[(diphenylmethyl)thio] acetic acid ester with anti-drug resistant bacteria activity and a method of preparing the same” (SHAANXI UNIVERSITY OF SCIENCE AND TECHNOLOGY, priority 2021, dated 2022).

Tests used:
Format in all cases: cell-based
Settings in all cases: for Zone of inhibition: 30 μg/tablet paper, 37° C., 24 h, ≥17 mm sensitive, 15-16 mm intermediary, ≤14 mm drug resistance; for Inhibitory effect (in words): summary of FIGS. 1-3 and Table 1
[1] = tested on: MRSA 18-596 (multi-resistant Staphylococcus aureus 596); test: Paper diffusion method drug sensitivity test, MRSA 18-596
Description: (§1) The antimicrobial efficacy was determined by a paper diffusion method drug sensitivity test.
(§2) Experimental strains: multi-resistant Staphylococcus aureus 171, multi-resistant Staphylococcus aureus 575, multi-resistant Staphylococcus aureus 596. The experimental strains were provided by Huashan Hospital Affiliated to Fudan University (Institute of Antibiotic of Fudan University).
(§3) Drug sensitive paper: The drug sensitive paper is a special drug sensitive paper with a diameter of 6.35 mm and a water absorption of 0.02 mL. The control drug was vancomycin (30 μg/tablet); the test drug was pleuromutilin 2-[(diphenylmethyl)thio]acetic acid ester (30 μg/tablet).
(§4) The experimental strains were inoculated in non-selective medium and placed in air at 37° C. for 24 h. Pick a single colony that grows well and inoculate it into broth medium, incubate at 35° C.±2° C. for 6 hours, and use LA broth medium to calibrate the concentration of the bacterial solution to 0.5 Mie turbidimetric tube ([…]). A bacterial suspension is obtained.
(§5) LB dry powder was weighed, sterilized at 103.4 Kpa, 121.3° C. high-pressure steam for 15 min, and then placed it in a 40° C.-50° C. water bath. A sterile empty plate (inner diameter 9 cm) was placed on the surface of the ultra-clean table water table, and […] to the plate. The thickness of each plate was 3 mm to 4 mm. After the plate was cooled at room temperature, it was stored in the refrigerator at 2° C.-8° C. A sterile cotton swab was used to dip the bacterial solution and to evenly coat the surface of the LB plate 3 times. After inoculation of the bacterial suspension, the LB plate was dried at room temperature for 3 min to 5 min. Sterile forceps were used to closely attach the antibacterial drug paper to the dish. The dish was put upside down and placed in a 37° C. incubator for 24 h. The results were observed by measuring the diameter. Taking 0.5% DMSO solution as a negative control, the antibacterial activity is expressed by the diameter of the inhibition zone. The inhibition zone ≥17 mm, sensitive; the inhibition zone of 15 mm-16 mm, intermediary; the inhibition zone ≤14 mm, drug resistance.

[2] = tested on: MRSA 18-575 (multi-resistant Staphylococcus aureus 575); test: Paper diffusion method drug sensitivity test, MRSA 18-575
Description: as §1, §2, §3, §4, §5

[3] = tested on: MRSA 18-171 (multi-resistant Staphylococcus aureus 171); test: Paper diffusion method drug sensitivity test, MRSA 18-171
Description: as §1, §2, §3, §4, §5

Row | Structure (SMILES) | Zone of inhibition [1] [mm] | Inhibitory effect (in words) [1] | Zone of inhibition [2] [mm] | Inhibitory effect (in words) [2] | Zone of inhibition [3] [mm] | Inhibitory effect (in words) [3]
1 | C=C[C@]1(C)C[C@@H](OC(=O)COC(=O)CSC(c2ccccc2)c2ccccc2)[C@]2(C)[C@H](C)CC[C@]3(CCC(=O)[C@H]32)[C@@H](C)[C@@H]1O | 25 | strong inhibitory effects | 23 | strong inhibitory effects | 21 | strong inhibitory effects
2 | O=C(O)CSC(c1ccccc1)c1ccccc1 [2-[(Diphenylmethyl)thio]acetic acid] | 0 | no inhibitory effect | 0 | no inhibitory effect | 0 | no inhibitory effect
3 | C=C[C@]1(C)C[C@@H](OC(=O)CO)[C@]2(C)[C@H](C)CC[C@]3(CCC(=O)[C@H]32)[C@@H](C)[C@@H]1O [Pleuromutilin] | 0 | no inhibitory effect | 0 | no inhibitory effect | 0 | no inhibitory effect
4 | CN[C@H](CC(C)C)C(=O)N[C@H]1C(=O)N[C@@H](CC(N)=O)C(=O)N[C@H]2C(=O)N[C@H]3C(=O)N[C@H](C(=O)N[C@H](C(=O)O)c4cc(O)cc(O)c4-c4cc3ccc4O)[C@H](O)c3ccc(c(Cl)c3)Oc3cc2cc(c3O[C@@H]2O[C@H](CO)[C@@H](O)[C@H](O)[C@H]2O[C@H]2C[C@](C)(N)[C@H](O)[C@H](C)O2)Oc2ccc(cc2Cl)[C@H]1O [Vancomycin, vancomycin] | 21 |  | 18 |  | 17 | 
